From US20260207535A1, “CRIBLAGE INHIBITEURS USP8” (COMMISSARIAT A L'ENERGIE ATOMIQUE ET AUX ENERGIES …, priority 2022, published 2026)
Where two headings read alike, the source gives them in different places.

Key:
[1] = target: T1, Full length USP8 (USP8FL) (Homo sapiens, UniProt P40818); assay: USP8FL (full length USP8) enzymatic inhibition, Ub-Rhodamine 110 hydrolysis in L-cysteine buffer; format: biochemical; conditions: USP8 FL 75 nM, Ub-Rho 0.1 μM, L-cysteine buffer
T1 construct: purchased BostonBiochem E-520
T1 sequence (P40818 1-1118): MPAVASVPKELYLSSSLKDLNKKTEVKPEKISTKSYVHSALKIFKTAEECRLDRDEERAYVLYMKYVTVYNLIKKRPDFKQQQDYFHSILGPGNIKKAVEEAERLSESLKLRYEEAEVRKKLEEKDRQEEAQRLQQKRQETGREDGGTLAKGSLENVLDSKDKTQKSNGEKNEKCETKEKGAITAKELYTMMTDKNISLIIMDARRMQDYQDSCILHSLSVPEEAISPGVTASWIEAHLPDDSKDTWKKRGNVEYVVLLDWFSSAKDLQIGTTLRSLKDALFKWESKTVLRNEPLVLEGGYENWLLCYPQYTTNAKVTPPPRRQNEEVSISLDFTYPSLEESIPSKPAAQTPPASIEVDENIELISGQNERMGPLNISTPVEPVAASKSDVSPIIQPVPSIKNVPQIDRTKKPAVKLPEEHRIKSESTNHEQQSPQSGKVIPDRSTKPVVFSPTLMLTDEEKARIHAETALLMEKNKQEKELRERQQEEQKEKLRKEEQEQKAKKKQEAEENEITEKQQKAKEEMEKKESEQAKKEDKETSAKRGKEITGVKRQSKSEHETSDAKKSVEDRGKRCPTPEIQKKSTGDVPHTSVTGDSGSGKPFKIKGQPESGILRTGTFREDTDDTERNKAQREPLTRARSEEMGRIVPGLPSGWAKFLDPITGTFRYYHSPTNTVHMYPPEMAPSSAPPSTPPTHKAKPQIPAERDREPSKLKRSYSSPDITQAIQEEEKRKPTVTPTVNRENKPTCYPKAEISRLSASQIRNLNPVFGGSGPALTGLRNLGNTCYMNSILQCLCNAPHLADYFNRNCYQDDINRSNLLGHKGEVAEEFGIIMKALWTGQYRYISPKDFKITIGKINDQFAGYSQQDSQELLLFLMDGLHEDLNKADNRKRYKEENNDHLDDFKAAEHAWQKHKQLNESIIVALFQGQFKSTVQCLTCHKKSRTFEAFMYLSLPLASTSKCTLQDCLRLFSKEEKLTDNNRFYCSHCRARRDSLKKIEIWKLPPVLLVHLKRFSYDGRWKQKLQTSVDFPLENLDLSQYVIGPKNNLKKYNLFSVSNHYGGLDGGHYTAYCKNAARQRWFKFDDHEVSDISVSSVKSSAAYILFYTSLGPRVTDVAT
Protocol: USP8 FL (USP8 Full Length) was incubated at a concentration of 75 nM in the presence of Ub-Rho (UBIQUIGENT ref. 60-0117-050) at a final concentration of 0.1 μM, in conditions ensuring linearity of enzyme activity throughout the assay in a specific buffer. Compounds were added to the reaction mix at different doses just before the substrate. The enzymatic reaction kinetics were monitored by measuring fluorescence elicited by the hydrolysis of Ub-Rho over 30 min.
In this setup, an in-house purified catalytic domain of USP8 (USP8CD) was used at a concentration of 80 nM in the presence of the artificial substrate Ubiquitin-Rhodamine 110 (Ub-Rho) (ref: 60-0117-050 Ubiquigent) at a final concentration of 0.1 μM, in conditions ensuring linearity of enzyme activity throughout the assay incubation time. Enzymatic assay was performed in a Tris HCl buffer (40 mM Tris HCl pH 7.4, Ovalbumine 0.5 mg/ml, Cysteine HCl 5.5 mM). Compounds to be tested were added to the reaction mix and incubated with enzyme for 20 min, before the substrate. The enzymatic reaction kinetics were monitored by measuring fluorescence elicited by the hydrolysis of the peptidyl Ub-Rho over 30 minutes. The negative control was the solvent DMSO at 1%.
Full length USP8 (USPBFL) (BostonBiochem ref. E-520) were used at a concentration of 75 nM in the presence of a ubiquitin substrate, i.e., the Ub-Rhodamine 110 (Ub-Rho) (Ubiquigent ref. 60-0117-050) at a final concentration of 0.1 μM. Enzymatic assays were performed as described for USP8-CD except that USP-FL was used at a concentration of 75 nM. The compounds were used at a final concentration of 0.1, 1, 5, 10, 50 and 100 μM in DMSO 0.5%. The USP8 catalytic activity was monitored both before adding the substrate (TO) and after twenty minutes of incubation at room temperature (Final Time TF). The enzymatic reaction kinetics were monitored by measuring fluorescence elicited by the hydrolysis of the Ub-Rho bound over 30 minutes.

[2] = tested on: AtT-20 pituitary cells; assay: Inhibition of ACTH secretion in pituitary cells (ACTH EIA on supernatant); format: cell-based, mouse
Protocol: ACTH release (percent comparison to DMSO control). Briefly, 12,500 AtT-20 cells per well were seeded in a 96-well plate. After 24 hours exposure, cells were treated with each compound at the indicated final concentration, or with DMSO alone (control condition compound solvent) or with corticotropin releasing factor (indicated CRF) at 100 nM. After a 24-hour treatment, cell supernatants were collected and stored at −80° C., prior to quantification of ACTH concentration using ACTH chemiluminescent EIA kit (Phoenix Pharmaceuticals, Inc.). Determination of ACTH concentrations was based on the best-fitting ACTH standard curve and P values were calculated using one-way ANOVA, using Prism 9 software (GraphPad Software, Inc.) ns (P=0.12). **P<0.002. ***P<0.001. All compounds were tested in technical triplicates. One representative experiment out of three is presented.
FIG. 4: illustrates a decrease of ACTH secretion by AtT-20 cells after 24-hour treatment of halogenated salicylanilides. 12,500 AtT-20 cells per well were seeded in a 96-well plate. […] After a 24-hour treatment, cell supernatants were collected and stored at −80° C., prior to quantification of ACTH concentration using ACTH chemiluminescent EIA kit (Phoenix Pharmaceuticals, Inc.). Determination of ACTH concentrations was based on the best-fitting ACTH standard curve and P values were calculated by ordinary one-way ANOVA using Prism 6 software (GraphPad Software, Inc), ns (not significant), **** P<0.0001. Compounds were tested in technical triplicates.
12,500 AtT-20 cells per well were seeded in a 96-well plate. After 24 hours, cells were treated with compounds (corresponding chemical formula are indicated in Table 1) at 25 μM final concentration, or with DMSO alone (compound solvent). After a 24-hour treatment, cell supernatants were collected and stored at −80° C., prior to quantification of ACTH concentration using ACTH chemiluminescent EIA kit (Phoenix Pharmaceuticals, Inc.). Determination of ACTH concentrations was based on the best-fitting ACTH standard curve and P values were calculated by ordinary one-way ANOVA using Prism 6 software (GraphPad Software, Inc), ns (not significant), *P<0.05, ***P<0,0001. Compounds were tested in technical triplicates.
Mouse AtT-20 pituitary cell line were used as a powerful and well-characterized model to monitor ACTH secretion using an enzyme immunoassay (EIA) kit.
Mouse AtT-20 cells were obtained from the American Type Culture Collection and maintained on DMEM containing 10% fetal bovine serum, 100 μg/mL streptomycin and 100 U/mL penicillin at 37° C. with 5% CO2 after recovery from long-term storage on liquid nitrogen-vapor phase.
The ACTH secretion levels of AtT-20 cell culture was monitored on the supernatant of AtT-20 cells treated or not by increasing doses of compounds belonging to the family of halogenated salicylanilides chemicals.
1.25×10^4 AtT20 cells were seeded on polylysine-coated 96-well culture vessels on 150 μL of complete medium. After 24 hours, cells were treated with stock compounds to a final DMSO concentration of 0.5%. After 24 hours of treatment, cell culture supernatant was collected, cleared for 10 min at 1000×g at 4° C., diluted or not in assay buffer (Phoenix Peptide ACTH EIA EK-001-21) and frozen at −80° C. for subsequent processing according to the instructions of the kit's manufacturer.

[3] = tested on: AtT-20 cells; assay: Cytotoxicity towards AtT-20 cells (PrestoBlue viability assay); conditions: for cytotoxicity on AtT-20 cells, in words (FIG. 6): 25 μM for 24 hours
Excerpt: The AtT-20 cells viability was monitored in the conditions used to follow ACTH secretion. The viability of treated cells was concomitantly evaluated using a Cell Viability Reagent (monitoring of the cells' reducing capacity) (PrestoBlue® assay, Molecular Probes) with the aim to determine non-toxic doses of cell treatment.
After the collection of the supernatant sample for the ACTH assay in the previous step, cells were supplemented with the PrestoBlue™ cell viability reagent (Invitrogen™ A13261) at 10% final volume, and re-incubated at 37° C. for 30 minutes. Fluorescence was then read with a FLUOstar OPTIMA microplate reader.

[4] = read-out: USP8FL inhbition IC50 [μM] (CI: Confidence Interval)
[5] = Mus musculus, AtT20, 25 μM, 24-hour treatment, AtT-20 supernatant, read-out: ACTH secretion % of control (DMSO) at 25 μM

| Structure (SMILES) | IC50 [1, 4] | inhibition of ACTH at 25 μM, in words (FIG. 4, FIG. 5) ([2]; 25 μM, 24-hour treatment) | activity at 25 µM [2, 5] | AtT-20 cell viability (PrestoBlue assay) % of control (DMSO) at 25 μM Mean (SD) ([3]; 24-hour exposure) | other results |
| --- | --- | --- | --- | --- | --- |
| O=C(Nc1ccc(Cl)cc1)c1cc(I)cc(I)c1O [Amb1935028] | 11.9 µM | significant inhibition | 32% | 58.81 (34.11) % | cytotoxicity on AtT-20 cells, in words (FIG. 6) [3]: partially cytotoxic |
| Cc1ccc(C(=O)c2cc(NC(=O)c3cc(I)cc(I)c3O)ccc2Cl)cc1 [Amb4103735] | 3.41 µM | significant inhibition | 58% | 109.4 (18.18) % |  |
| O=C(Nc1cc(Cl)cc(Cl)c1)c1cc(I)cc(I)c1O [Amb8477462] | 8.98 µM | significant inhibition | 31% | 67.96 (17.52) % |  |
| O=C(Nc1ccc(Cl)cc1Cl)c1cc(I)cc(I)c1O [Amb8487151] | 4.34 µM | significant inhibition | 44% | 89.58 (10.11) % |  |
| Cc1ccc(NC(=O)c2cc(Cl)ccc2O)cc1 [OSSL-122817] |  | ineffective | 118% |  |  |
| O=C(Nc1ccc(Oc2ccc(Cl)cc2)c(Cl)c1)c1cc(I)cc(I)c1O [Rafoxanide, reference compound] |  | significant inhibition |  |  | ACTH secretion % of control (DMSO) at 25 μM ([2]; 25 μM, 24-hour treatment, AtT-20 supernatant, listed as Rafoxanide Amb2704313, 25 µM): 33%; ACTH secretion % of control (DMSO) at 25 μM ([2]; 25 μM, 24-hour treatment, AtT-20 supernatant, listed as Rafoxanide MCE HY-17598, 25 µM): 57%; cytotoxicity on AtT-20 cells, in words (FIG. 6) [3]: partially cytotoxic; AtT-20 cell viability (PrestoBlue assay) % of control (DMSO) at 25 μM Mean (SD) ([3]; 24-hour exposure, listed as Rafoxanide Amb2704313): 39.30 (6.852) %; AtT-20 cell viability (PrestoBlue assay) % of control (DMSO) at 25 μM Mean (SD) ([3]; 24-hour exposure, listed as Rafoxanide MCE HY-17598): 56.15 (3.536) % |
| O=C(Nc1ccccc1)c1ccccc1O [Salicylanilide, reference compound] |  | ineffective |  | 105.4 (14.77) % | IC50 ([1]; USP8FL inhbition IC50 [μM] (CI: Confidence Interval)): > 40 µM; activity at 25 µM ([2]; Mus musculus, AtT20, 24 h, read-out: ACTH secretion % of control (DMSO) at 25 μM, 25 μM, 24-hour treatment, AtT-20 supernatant): 99% |

The next lines start with results.

| IC50 [1, 4] | Structure (SMILES) | inhibition of ACTH at 25 μM, in words (FIG. 4, FIG. 5) ([2]; 25 μM, 24-hour treatment) | activity at 25 µM [2, 5] | AtT-20 cell viability (PrestoBlue assay) % of control (DMSO) at 25 μM Mean (SD) ([3]; 24-hour exposure) | other results |
| --- | --- | --- | --- | --- | --- |
| 13 µM | O=C(Nc1cc(Cl)ccc1Cl)c1cc(I)cc(I)c1O [Amb8477378] | significant inhibition | 41% | 95.72 (11.42) % |  |
| 14.6 µM | Cc1ccc(NC(=O)c2cc(I)cc(I)c2O)cc1 [Amb8477380] | significant inhibition | 66% | 93.51 (11.59) % |  |
| 33.2 µM | CC(=O)Oc1c(I)cc(I)cc1C(=O)Nc1ccc(Cl)cc1 [Clioxanide, reference compound] | significant inhibition | 57% | 94.21 (12.30) % |  |
| 61 µM | O=C(Nc1ccc([N+](=O)[O-])cc1Cl)c1cc(Cl)ccc1O [Niclosamide, reference compound] | significant inhibition |  |  | reduction of ACTH secretion levels ([2]; 0.5 μM): 27%; reduction of ACTH secretion levels ([2]; 1.0 μM): 41%; activity at 27 µM ([2]; Mus musculus, AtT20, 27 μM, 24-hour treatment, AtT-20 supernatant, read-out: ACTH secretion % of control (DMSO) (at 27 μM)): 41%; dose-dependent inhibition of ACTH (FIG. 3) ([2]; increasing concentrations, 24-hour treatment): significant dose-dependent inhibition; toxicity in AtT-20 cells, in words ([3]; 0.5 μM): no significant toxicity; toxicity in AtT-20 cells, in words ([3]; 1.0 μM): no significant toxicity; AtT-20 cell viability (PrestoBlue assay) % of control (DMSO) (at 27 μM) Mean (SD) ([3]; 27 μM, 24-hour exposure): 50% (12,40) (at 27 μM); dose-dependent viability assay, in words (FIG. 7) ([3]; AtT-20 cells, 24-hour exposure, several doses): considerable effects on viability upon higher doses |
| 7.68 µM | O=C(Nc1cc(Cl)cc(Cl)c1O)c1c(O)c(Cl)cc(Cl)c1Cl [Oxyclozanide, reference compound] | significant inhibition | 41% | 98.08 (14.38) % |  |
